Experiments:
DENV4, strain MY01-22713 = test: DENV4 infected A549 cells, high content imaging (HCI); assay type: cell-based; details: 48 hr
Procedure: 2 Co mpound testing with DENV dn I FAPA assays. Final dn I assa y reaction mixtures
3 contained 100 nM DENV 5 ´UTR-L-3´UTR IVT RNA, 20 µ M ATP, 20 µM GTP, 20 µM
4 UTP, 5 µM ATTO -CTP, and 100 nM of DENV FL NS5 protein in 15 µl in assa y buffer
5 comprising 50 mM Tris/ HCl, pH 7.5, 10 mM KCl, 1 mM MgCl2, 0.3 mM MnCl2 (DENV2
6 and 4) or 1 mM MnCl 2 (DENV1 and 3), 0.001% Triton- X-100 and 10 µ M cystein e [ 1] . To
7 perform dose-respons e inhibition measurements, compounds from 0- 20 or - 100 µM
8 concentr ations are two -fold seriall y diluted into 384-well black opaqu e plat es (Corning
9 Costar), after which 100 nM DENV FL NS5 protein was added into resp ect ive wells. The
10 plates wer e sealed, b riefl y shak en and centrif uged at 1500 rpm for 30 sec and incubated at RT
11 for 15 min. Thereafter,RNA and ATTO -CTP, ATP, GTP and UTP were added to the wells to
12 start the reactions. The pl ates wer e re-seal ed, shaken and centrifuged as before, followed b y
13 incubation RT for 120 min. […]
15 intestinal phosphatase (CIP), re- incubation at RT for 60 min and read on a Tecan Safire II
16 microplate reader. […]
8 DENV envelope protein ) and DRAQ5 (for nucl ear DNA) . Quantifications of DENV
9 envelope protein were determined using the Opera high content imaging s ystem and anal ysis […]
17 µM concentrations. At 48 hr of post-incubation, r enilla luciferas e activities were measured […]

HuH-7 = test: in vitro; assay type: cell-based; details: HuH-7 (DENV2 replicon cells); 48 hr; ATP levels
Procedure: A549, BHK-21 and Huh7 cells bearing stable DENV2 sub-genomic replicon or transiently electroporated DENV2-NGC replicon or infectious virus cDNAs were seeded into 384-well microplate (3,000 cells per well). After over-night incubation at 37°C with 5% CO2, the cells were treated with 2-fold serially diluted compounds, starting from 20 or 50 μM. At 48 hr of post-incubation, renilla luciferase activities were measured with the ViviRen live-cell substrate (Promega, USA) according to the manufacturer’s protocol. CellTiter-Glo reagent (Promega, USA) was then added to determine cytotoxic effects of compounds. For the HCV replicon assay, Huh-7.5 cells harboring the HCV replicon were seeded into a 96-well microplate (20,000 cells per well). At 48 hr after compound treatment, cells were assayed for firefly luciferase activity by using a Bright-Glo luciferase assay (Promega, USA). NITD-008, a nucleoside inhibitor of DENV and HCV was added as a control.

DENV1 FL NS5 = target: T1, DENV1 FL NS5 (Dengue virus type 1, UniProt P17763); details: read-out: DENV FL NS5 de novo initiation FAPA, IC50, DENV1; cited from earlier work
T1 construct: 100 nM DENV FL NS5 protein was added; made in house

DENV4 FL NS5 = target: T2, DENV4 FL NS5 (Dengue virus type 4, UniProt P09866); assay type: biochemical
T2 construct: 100 nM DENV FL NS5 protein was added; made in house
T2 sequence (P09866 2488-3387): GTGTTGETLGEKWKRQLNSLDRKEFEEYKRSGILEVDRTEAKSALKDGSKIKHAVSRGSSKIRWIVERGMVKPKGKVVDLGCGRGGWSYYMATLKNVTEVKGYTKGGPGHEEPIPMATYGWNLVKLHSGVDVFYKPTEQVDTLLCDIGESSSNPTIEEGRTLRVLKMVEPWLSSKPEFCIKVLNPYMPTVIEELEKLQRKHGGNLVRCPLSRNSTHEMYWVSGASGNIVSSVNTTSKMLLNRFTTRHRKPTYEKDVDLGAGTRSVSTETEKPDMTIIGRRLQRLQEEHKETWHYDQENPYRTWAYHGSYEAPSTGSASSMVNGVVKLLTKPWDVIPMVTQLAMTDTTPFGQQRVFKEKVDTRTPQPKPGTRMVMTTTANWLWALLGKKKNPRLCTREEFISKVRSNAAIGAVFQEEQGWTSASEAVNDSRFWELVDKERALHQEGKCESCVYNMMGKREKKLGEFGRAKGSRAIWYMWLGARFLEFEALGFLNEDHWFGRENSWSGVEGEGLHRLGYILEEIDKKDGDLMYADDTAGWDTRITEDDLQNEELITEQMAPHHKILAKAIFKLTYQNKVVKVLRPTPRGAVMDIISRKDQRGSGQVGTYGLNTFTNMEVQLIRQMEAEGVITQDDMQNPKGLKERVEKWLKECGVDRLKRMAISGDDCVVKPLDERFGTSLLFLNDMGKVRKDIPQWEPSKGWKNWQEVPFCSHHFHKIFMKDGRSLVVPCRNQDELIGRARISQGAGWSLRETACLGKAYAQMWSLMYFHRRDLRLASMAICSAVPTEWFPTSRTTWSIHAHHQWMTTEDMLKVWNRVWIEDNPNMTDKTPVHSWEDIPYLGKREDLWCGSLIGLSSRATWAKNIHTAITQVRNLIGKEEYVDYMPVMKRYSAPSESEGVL

T1 sequence (P17763 2494-3392): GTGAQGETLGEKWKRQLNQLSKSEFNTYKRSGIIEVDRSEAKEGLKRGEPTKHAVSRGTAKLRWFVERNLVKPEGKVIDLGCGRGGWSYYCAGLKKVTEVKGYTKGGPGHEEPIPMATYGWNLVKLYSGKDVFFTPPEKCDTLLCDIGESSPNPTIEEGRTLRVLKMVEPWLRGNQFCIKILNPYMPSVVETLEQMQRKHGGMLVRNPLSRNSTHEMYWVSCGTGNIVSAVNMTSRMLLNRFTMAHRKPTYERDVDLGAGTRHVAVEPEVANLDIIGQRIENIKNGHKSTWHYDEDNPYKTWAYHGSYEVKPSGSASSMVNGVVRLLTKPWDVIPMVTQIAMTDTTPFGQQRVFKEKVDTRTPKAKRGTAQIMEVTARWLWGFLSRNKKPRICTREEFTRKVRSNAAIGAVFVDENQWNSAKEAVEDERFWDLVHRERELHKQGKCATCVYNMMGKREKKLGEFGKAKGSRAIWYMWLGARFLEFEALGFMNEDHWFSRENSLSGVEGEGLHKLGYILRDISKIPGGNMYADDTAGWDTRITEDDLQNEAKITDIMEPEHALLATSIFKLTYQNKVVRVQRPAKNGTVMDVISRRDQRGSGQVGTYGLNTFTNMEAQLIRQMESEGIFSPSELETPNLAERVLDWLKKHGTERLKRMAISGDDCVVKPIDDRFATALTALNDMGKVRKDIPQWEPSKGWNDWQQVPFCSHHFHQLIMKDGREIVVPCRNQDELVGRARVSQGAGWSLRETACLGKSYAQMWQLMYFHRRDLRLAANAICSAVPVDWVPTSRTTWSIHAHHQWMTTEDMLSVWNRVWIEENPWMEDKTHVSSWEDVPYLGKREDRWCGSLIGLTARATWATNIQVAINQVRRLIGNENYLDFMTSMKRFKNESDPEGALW

COc1cccc(S(=O)(=O)NC(=O)c2cc(-c3ccc(C#CCO)s3)c(OC)cc2C)c1 [Compound 26i]
EC50 (DENV4, strain MY01-22713): 20.4 µM

COc1cccc(S(=O)(=O)NC(=O)c2cc(-c3ccc(C#CCO)s3)c(OC)cc2OC)c1 [Compound 27]
CC50 (HuH-7): > 50 µM | IC50 (DENV1 FL NS5): 0.068 µM

COc1cc(OC)c(-c2ccc(C#CCO)s2)cc1C(=O)NS(=O)(=O)c1cccc2cccnc12 [Compound 29]
mode of inhibition with respect to viral RNA substrate (DENV4 FL NS5; Lineweaver-Burk plots, 0–500 nM RNA): uncompetitive | mode of inhibition with respect to GTP (DENV4 FL NS5; Lineweaver-Burk plots, 0–50 μM GTP): uncompetitive inhibition | mode of inhibition at high GTP concentrations (DENV4 FL NS5; high GTP concentrations): non-competitive mode of inhibition

— paper PMC4976923, “Potent Allosteric Dengue Virus NS5 Polymerase Inhibitors: Mechanism of Action and Resistance Profiling” (PLoS Pathogens, 2016)
